Test results reported in PubChem BioAssay AID179 (DTP/NCI, 2004).
Active and inactive are the calls of the source.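 How the source made its calls: active means compounds giving half or more protection of infected cells from virus-caused growth loss, again on retest; inactive means the rest.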 Where a SMILES comes first, the peptide text is derived from it. Bridges are numbered along the chain shown (N, C = ends). Roman numbers before positions name the chains, in order. [ ]: non-standard residue; d: D form. The star is where a group is joined. Arg(NO2) = N=C(NCCC[CH](N)C(=O)O)N[N+](=O)[O-]; Cbz = O=C(OCc1ccccc1)*

System: CEM cells HIV-1 protection, formazan growth assay
Assay: NCI AIDS Antiviral Assay
Settings: for IC50: measured here: growth of uninfected CEM cells
Outline: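 Five concentrations of each compound were applied to infected and uninfected human CEM cells. Protection from HIV-1 was judged from growth measured with a soluble formazan assay.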

Compound | EC50 | IC50 | outcome
Cc1ccc(S(=O)(=O)c2scc(-c3ccccc3)c2C)cc1 | > 200 µM | 107 µM | –
COc1ccc(-c2cc(=O)c3c(C)cc(O)cc3o2)cc1OC | > 200 µM | 174 µM | –
CC(=O)NC1NCCNC1=O (stereo not given) | > 200 µM | > 200 µM | –
COC(=O)C(CCCN=C(N)N[N+](=O)[O-])NC(=O)C(Cc1ccccc1)NC(=O)C1CCCN1C(=O)OCc1ccccc1 (stereo not drawn) (Cbz-Pro-Phe-[Arg(NO2)]-OMe; configuration not given here) | > 112 µM | > 112 µM | –
O=C(C=Nc1ccccc1C(=O)O)c1ccco1 | > 8.32 µM | > 8.32 µM | –
Cn1cc(NC(=O)c2cc(NC(=O)c3cc(NC=O)cn3C)cn2C)cc1C(=O)NCCC(=N)N | > 513 µM | 30.2 µM | –
C/C(=N\NS(=O)(=O)c1ccc(C)cc1)C(CN1CCOCC1)C(c1ccccc1)c1c(O)c2ccccc2oc1=O (stereo not given) | > 42.7 µM | 19.1 µM | –
CCC[CH2][Sn]([CH2]CCC)([O]C(=O)Cc1ccc(F)cc1)[O]C(=O)Cc1ccc(F)cc1 | > 25.1 µM | 4.79 µM | –
CCOP(=O)(OCC)C(C)(CC)/N=C(\N)NC#N (stereo not given) | > 200 µM | > 200 µM | –
CC[C@@H](C)C(=O)O[C@@H]1CC[C@]2(CO2)C2(COC(C)=O)C(OC(C)=O)CC(C)[C@](C)(C[C@H](O)C3=CC(=O)OC3)[C@@H]12 (stereo not given in full) | – | – | inactive
CCOC(=O)c1ccc(CS(=O)c2ccc(C)cc2)c([N+](=O)[O-])c1 (stereo not given) | > 74.1 µM | 14.5 µM | –
O=C(O)c1ccc(C(=O)c2ccccc2C(=O)O)cc1 | > 200 µM | > 200 µM | –
CC(=O)Nc1ccc(C(=O)NN2C(=O)C(Cl)C2c2ccc([N+](=O)[O-])cc2)cc1 (stereo not given) | > 200 µM | 112 µM | –
COC(=O)CC=C(c1cc(Cl)c(OC)c(C(=O)OC)c1)c1cc(Cl)c(OC)c(C(=O)OC)c1 | > 200 µM | 41.7 µM | –
COc1ccc(C[C@H](N)C(=O)NC2C(CO)OC(n3cnc4c(N(C)C)ncnc43)C2O)cc1 (stereo not given in full) | > 200 µM | 0.117 µM | –
CC(C)(C)c1cc(N=NC(=S)NCc2ccccc2)cc(C(C)(C)C)c1O | > 7.08 µM | > 7.08 µM | –
CCC[CH2][Sn]([CH2]CCC)([O]C(=O)c1cccc(F)c1F)[O][Sn]([CH2]CCC)([CH2]CCC)[O]C(=O)c1cccc(F)c1F | > 6.61 µM | 4.79 µM | –
Cc1cc(=O)c2c([nH]1)NS(=O)(=O)NC2=O | > 1480 µM | > 1480 µM | –
COC(=O)c1ccc(C(=O)NC(Cc2ccc(Oc3cc(CC(NC(=O)c4ccccc4C(=O)OC)C(=O)OC)ccc3OC)cc2)C(=O)OC)cc1 (stereo not given) | > 200 µM | 16.2 µM | –
Cc1nc(Nc2ccccc2[N+](=O)[O-])sc1C(=O)CC(=O)C(=O)Nc1c(C(C)C)cccc1C(C)C | > 200 µM | > 200 µM | –
CSc1nc2c(N)ncnc2n1C | > 200 µM | > 200 µM | –
CCO[C@@H]1OC(=O)[C@H]2C(c3ccc(Cl)cc3Cl)=NO[C@@H]12 | > 22.9 µM | > 22.9 µM | –
Oc1ccccc1C=Nc1ccccc1SSc1ccccc1N=Cc1ccccc1O | > 200 µM | 8.13 µM | –
CCOC(=O)C1(Cc2ccccc2)Cc2ccccc2C1=O (stereo not given) | > 200 µM | 37.2 µM | –
COc1cc(/C=C/C=C2\CC/C(=C\C=C\c3ccc(O)c(OC)c3)C2=O)ccc1O | > 200 µM | 13.2 µM | –
Cc1ccccc1NC(=O)C(=O)C(C#N)c1ccccc1C (stereo not given) | > 17.8 µM | > 17.8 µM | –

Compound | EC50 | IC50 | outcome
Cc1cc(C)nc(NS(=O)(=O)c2ccc(Nc3c4ccccc4nc4c(C(=O)N5CCN(CCO)CC5)ccc(Cl)c34)cc2)n1 | > 34.7 µM | > 34.7 µM | –
COc1cc(-c2cc(OC)c(OC)c3ccc(Br)cc23)c2cc(Br)ccc2c1OC | > 200 µM | 102 µM | –
Cc1cc2nnc(C(N)=O)c(N)c2cc1C | > 200 µM | > 200 µM | –
CC(NC(=O)CNC(=O)C(N)CO)C(=O)NC(CCC(=O)O)C(=O)NC(CCC(=O)O)C(=O)NC(CO)C(=O)NC(CCCCN)C(=O)NC(CCC(=O)O)C(=O)NC(CCC(N)=O)C(=O)NC(CO)C(=O)N1CCCC1C(=O)NC(CC(N)=O)C(=O)NC(C)C(=O)NC(Cc1cnc[nH]1)C(=O)NC(CO)C(=O)O (stereo not given) (H-SGAEESKEQSPNAHS-OH; configuration not given here) | > 100 µM | > 100 µM | –
CC1=NNC(=O)C1C1(C(=O)O)CC(c2c[nH]c3ccccc23)=NC(=S)N1 (stereo not given) | > 100 µM | 69.2 µM | –
CC(C)NC(=O)OCCN=C1c2ccccc2CCc2ccccc21 | > 200 µM | 27.5 µM | –
NC(=O)c1cn(C2OC(CO)C(O)C2O)c2ncnc(N)c12 (stereo not given) | > 0.2 µM | 0.00562 µM | –
CSc1scc2c1/C(=N/NC(N)=O)CCC2 | > 200 µM | 91.2 µM | –
CCCCCCCCCCCCOC1OC(COC(C)=O)C(OC(C)=O)C(OC(C)=O)C1OC(C)=O (stereo not given) (tested in a mixture with another compound) | > 38 µM | 24 µM | –
Cc1ccccc1C1=[N+]([O-])c2ccc(Cl)cc2C1=O | – | – | inactive
CC(=O)Oc1cc(C)c(Cl)c2c(OC(C)=O)cc(C(C)=O)c(O)c12 | > 200 µM | 49 µM | –
COC(=O)C(=O)C(C(=O)C(=O)Nc1nc(=S)[nH][nH]1)c1nc2ccc([N+](=O)[O-])cc2[nH]c1=O (stereo not given) | > 282 µM | > 282 µM | –
O=[N+]([O-])c1cccc2nc3ccccc3c(NCCc3cccc[n+]3[O-])c12 | > 200 µM | 0.0631 µM | –
COc1nc(NC2OCC(OC(C)=O)C(OC(C)=O)C2OC(C)=O)c(-c2csc(N)n2)c(=O)n1C (stereo not given) | – | – | inactive
COc1ccc(N=Cc2ccc(N(CCC#N)S(=O)(=O)c3ccccc3)cc2C)cc1 | > 219 µM | 112 µM | –
O=C1C2C(C(=O)N1Cc1ccccc1)N(Cc1ccccc1)C(=O)N2Cc1ccccc1 (stereo not given) | > 12.3 µM | > 12.3 µM | –
COC(=O)C1(Cc2ccccc2C)Cc2ccc(C)cc2C1=O (stereo not given) | > 200 µM | 57.5 µM | –
O=C(OCc1ccccc1)C1(N2CN(C3(C(=O)OCc4ccccc4)CCCC3)CN(C3(C(=O)OCc4ccccc4)CCCC3)C2)CCCC1 | > 200 µM | 35.5 µM | –
Cc1cc(=O)[nH]c(NNC(C#N)c2c(O)ccc3ccccc23)n1 (stereo not given) | > 16.2 µM | 1.07 µM | –
COc1ccc(C(=O)c2ccc(OC)c(S(=O)(=O)N(C)C=O)c2)cc1S(=O)(=O)N(C)C=O | > 38.9 µM | > 38.9 µM | –
O=C1O/C(=C(\Br)c2ccccc2)c2ccccc21 | > 200 µM | 3.63 µM | –
CCSC(=O)n1nc(Cl)c2cc([N+](=O)[O-])ccc21 | > 200 µM | > 200 µM | –
CCCCc1c2c(nc3c1CC/C(=C\c1ccc([N+](=O)[O-])cc1)C3=O)CCCC2 | > 6.92 µM | 1.32 µM | –
NCCCCC(N)C(=O)NCCNc1ccc(NCCNC(=O)C(N)CCCCN)c2c1C(=O)c1ccccc1C2=O (stereo not given) | > 100 µM | 3.39 µM | –
Cc1cn(C2CC(NO)C(CO[Si](C)(C)C(C)(C)C)O2)c(=O)[nH]c1=O (stereo not given) | > 200 µM | 126 µM | –
Clc1ccc2c(c1)Sc1ccc(Cl)cc1S2 | > 200 µM | > 200 µM | –

Compound | EC50 | IC50 | outcome
O=C(/C=C/c1cccs1)c1ccc(C(=O)/C=C/c2cccs2)cc1 | > 200 µM | 45.7 µM | –
CCOC(=O)Cc1c(C)c2ccc(OC(C)=O)c(OC(C)=O)c2oc1=O | > 200 µM | 36.3 µM | –
COC(=O)C1[C@H](C(=O)OC)C1(Br)CBr (stereo not given in full) | > 200 µM | 97.7 µM | –
NC(CSSCC(N)C(=O)NC(Cc1ccc(O)cc1)C(=O)O)C(=O)NC(Cc1ccc(O)cc1)C(=O)O (stereo not drawn) (I: H-Cys-Tyr-OH / II: H-Cys-Tyr-OH; disulfide I:1-II:1; configuration not given here) | > 200 µM | > 200 µM | –
O=C(Nc1c(Cl)cc([N+](=O)[O-])cc1Cl)/C(=N\Nc1cccc(Cl)c1)c1c(O)c2ccccc2oc1=O | > 24.5 µM | > 24.5 µM | –
C[C@H]1CCCCC[C@@H]2CC(=O)CC2C(=O)CCC(=O)O1 (stereo not given in full) | > 200 µM | > 200 µM | –
O=C(O)C1(C(=O)O)CCC1.[NH2-].[NH2-].[Pt+2] | > 339 µM | 7.94 µM | –
CC(=O)/C(=C/n1c(=S)[nH]c2ccccc21)C(=O)Nc1ccccc1C | > 200 µM | > 200 µM | –
Cc1c(CNc2ccc(Cl)c(Cl)c2Cl)cnc2nc(N)nc(N)c12 | > 2 µM | 0.347 µM | –
O=C(NCCCNC(=O)c1ccc2c(O)c(O)ccc2c1)c1ccc2c(O)c(O)ccc2c1 | > 151 µM | 15.5 µM | –
Cc1ccc(NC(=O)CCC(CC(=O)C(C)(C)C)=NNC(=O)C(=O)NN)cc1C | > 3.63 µM | 2.57 µM | –
CC(=O)Nc1ccc(C2=N/C(=C\c3ccc(Cl)cc3)C(=O)O2)cc1 | > 11 µM | > 11 µM | –
Oc1ccc(/C=C\c2cnccn2)cc1 | > 251 µM | 33.9 µM | –
CCN(CC)c1ccc2cc(-c3nc4ccccc4n3C)c(=O)oc2c1 | > 7.59 µM | 0.437 µM | –
COc1ccc2cc1-c1cc(ccc1O)CC1NCCc3cc4c(cc31)Oc1c(c(OC)c(OC)c3c1[C@H](C2)N(C)CC3)O4 (stereo not given in full) | > 6.03 µM | > 6.03 µM | –
CCC1(CCCC=C(c2cc(Cl)c(OC)c(CO)c2)c2cc(Cl)c(OC)c(CO)c2)OCCO1 | > 200 µM | 11.7 µM | –
NC1=NS(=O)(=O)Nc2nc(-c3cccs3)[nH]c21 | > 200 µM | > 200 µM | –
CC(=O)Nc1nc(Cl)c2ncn(C3CCCO3)c2n1 (stereo not given) | > 200 µM | 22.4 µM | –
CC(=O)NNc1nc(C)c(C(=O)NNC(=O)C(=O)Nc2ccc(Cl)c([N+](=O)[O-])c2)s1 | > 288 µM | 107 µM | –
N#CCc1n[nH]c(Cc2ccccc2)n1 | > 200 µM | > 200 µM | –
CC(C)C(C(=O)O)C(=O)O | > 200 µM | > 200 µM | –
Cc1ccc(C)c2c1n1c(=O)n(C)c(=O)n21 | > 200 µM | > 200 µM | –
CC1=C[C@@H]2c3cc(c(O)cc3O)C(=O)[C@H]3C(c4ccc(O)cc4O)CC(C)=C[C@@H]3c3cc(c(O)cc3O)C(=O)C2C(c2ccc(O)cc2O)C1 (stereo not given in full) | – | – | inactive
NC1=NN(c2ccccc2)C(=O)C1C(=O)C(=O)NC1C2CC3CC(C2)CC1C3 (stereo not given) | > 13.8 µM | > 13.8 µM | –
N#Cc1cccc(NC(=O)c2ccc(C(=O)O)c(C(=O)c3ccc(C(=O)O)c(C(=O)Nc4cccc(C#N)c4)c3)c2)c1 | > 170 µM | > 170 µM | –
